Each structure is given as a SMILES string. Inconclusive results and toxic doses are left out. Square brackets hold non-standard residues; d marks the D form. Peptide text beside a SMILES is read from it. * marks the point of attachment. ξ: configuration not given here. Cbz = O=C(OCc1ccccc1)*; ξL = CC(C)CC(N)C(=O)O; OBn = c1ccc(CO*)cc1

The experiment deals with P388 leukemia ip, CD2F1 mice, survival T/C. As to the kind of experiment: NCI In Vivo Anticancer Drug Screen. Data for tumor model P388 Leukemia (intraperitoneal) in CD2F1 (CDF1) mice. The note with it: endpoint: median survival time, higher = longer survival. The method in brief: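 Mice carrying the transplanted tumor received test compound or vehicle. Survival was recorded in each group, and the value is the treated-group measurement divided by that of the vehicle-treated control group.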

[1] abbreviates: dose: 60.0 mg/kg/injection, schedule: Q01DX005 (ip), vehicle: saline with Tween-80.
Setting [2] is: dose: 120.0 mg/kg/injection, schedule: Q01DX005 (ip), vehicle: saline with Tween-80.
[3] abbreviates: dose: 50.0 mg/kg/injection, schedule: Q01DX009 (ip), vehicle: saline with Tween-80.
[4] abbreviates: dose: 100.0 mg/kg/injection, schedule: Q01DX009 (ip), vehicle: saline with Tween-80.
Where [5] appears, read: dose: 200.0 mg/kg/injection, schedule: Q01DX009 (ip), vehicle: saline with Tween-80.
Where [6] appears, read: dose: 50.0 mg/kg/injection, schedule: Q01DX005 (ip), vehicle: saline with Tween-80.
The mark [7] stands for this setting: dose: 100.0 mg/kg/injection, schedule: Q01DX005 (ip), vehicle: saline with Tween-80.
The mark [8] stands for this setting: dose: 200.0 mg/kg/injection, schedule: Q01DX005 (ip), vehicle: saline with Tween-80.
[9] abbreviates: dose: 240.0 mg/kg/injection, schedule: Q01DX005 (ip), vehicle: saline with Tween-80.
[10] abbreviates: dose: 50.0 mg/kg/injection, schedule: Q01DX009 (ip), vehicle: Klucel (hydroxypropylcellulose) (HPC).
The mark [11] stands for this setting: dose: 100.0 mg/kg/injection, schedule: Q01DX009 (ip), vehicle: Klucel (hydroxypropylcellulose) (HPC).
Setting [12] is: dose: 200.0 mg/kg/injection, schedule: Q01DX009 (ip), vehicle: Klucel (hydroxypropylcellulose) (HPC).

For the compound `CCOC(=O)Cc1cc2c(cc1C)CN=C(OCC)C2`, the T/C runs as follows: (dose: 6.25 mg/kg/injection, schedule: Q01DX009 (ip), vehicle: distilled water + Tween-80) 100 % of control; (dose: 12.5 mg/kg/injection, schedule: Q01DX009 (ip), vehicle: distilled water + Tween-80) 103 % of control; (dose: 25.0 mg/kg/injection, schedule: Q01DX009 (ip), vehicle: distilled water + Tween-80) 94 % of control; (dose: 50.0 mg/kg/injection, schedule: Q01DX009 (ip), vehicle: distilled water + Tween-80) 91 % of control; (dose: 100.0 mg/kg/injection, schedule: Q01DX009 (ip), vehicle: distilled water + Tween-80) 91 % of control; (dose: 200.0 mg/kg/injection, schedule: Q01DX009 (ip), vehicle: distilled water + Tween-80) 90 % of control. The T/C (dose: 400.0 mg/kg/injection, schedule: Q01DX009 (ip), vehicle: distilled water + Tween-80) was 100 % of control.
For `C=C(C)C#CCN(CCO)C(C)C`, the T/C under setting [1] was 102 % of control and the T/C under setting [2] is 98 % of control.
As to `O=C1CC(c2ccccc2)NCCCCN2C(=O)C=Cc3ccccc3C2CCN1` (stereo not given), the T/C is 100 % of control (dose: 6.25 mg/kg/injection, schedule: Q01DX009 (ip), vehicle: Klucel (hydroxypropylcellulose) (HPC)) and 94 % of control (dose: 12.5 mg/kg/injection, schedule: Q01DX009 (ip), vehicle: Klucel (hydroxypropylcellulose) (HPC)).
Consider `O=[N+]([O-])c1ccc2c(ccn2C2OCC(O)C(O)C2O)c1` (stereo not given), for which the T/C under setting [3] was 94 % of control, the T/C under setting [4] is 108 % of control and the T/C under setting [5] was 106 % of control.
Regarding `CC(C)CC(NC(=O)OCc1ccccc1)C(=O)NCC(=O)NCC(=O)OCc1ccccc1` (stereo not drawn) (Cbz-[ξL]-Gly-Gly-OBn), the T/C was 105 % of control under setting [6], 105 % of control under setting [7] and 102 % of control under setting [8].
Turning to `CCSCC1C(=O)C23C(O)C1CCC2C12COC3(O)C(O)C1C(C)(C)CCC2O` (stereo not given), the T/C was 108 % of control (dose: 22.5 mg/kg/injection, schedule: Q01DX009 (ip), vehicle: saline with Tween-80); 112 % of control (dose: 45.0 mg/kg/injection, schedule: Q01DX009 (ip), vehicle: saline with Tween-80); 94 % of control (dose: 90.0 mg/kg/injection, schedule: Q01DX009 (ip), vehicle: saline with Tween-80).
Take `CC(=O)N(C)N=NCCCl`: the T/C (dose: 13.12 mg/kg/injection, schedule: Q01DX005 (ip), vehicle: saline with Tween-80) is 157 % of control; the T/C (dose: 26.15 mg/kg/injection, schedule: Q01DX005 (ip), vehicle: saline with Tween-80) is 217 % of control; the T/C (dose: 52.5 mg/kg/injection, schedule: Q01DX005 (ip), vehicle: saline with Tween-80) was 257 % of control; the T/C (dose: 105.0 mg/kg/injection, schedule: Q01DX005 (ip), vehicle: saline with Tween-80) was 171 % of control.
As to `O=C(NC1CCC(CC2CCC(NC(=O)C34CC5CC(CC(C5)C3)C4)CC2)CC1)C12CC3CC(CC(C3)C1)C2` (stereo not given), the T/C reads like this: (dose: 0.4 mg/kg/injection, schedule: Q01DX005 (ip), vehicle: saline with Tween-80) 97 % of control; (dose: 0.8 mg/kg/injection, schedule: Q01DX005 (ip), vehicle: saline with Tween-80) 98 % of control; (dose: 1.56 mg/kg/injection, schedule: Q01DX005 (ip), vehicle: saline with Tween-80) 91 % of control; (dose: 1.6 mg/kg/injection, schedule: Q01DX005 (ip), vehicle: saline with Tween-80) 97 % of control; (dose: 3.2 mg/kg/injection, schedule: Q01DX005 (ip), vehicle: saline with Tween-80) 87 % of control; (dose: 6.25 mg/kg/injection, schedule: Q01DX005 (ip), vehicle: saline with Tween-80) 89 % of control. Also, under setting [8], the T/C was 86 % of control.
Take `Cc1ccc(S(=O)(=O)/C=C/C(=O)c2ccc3ccccc3c2)cc1`: the T/C (dose: 100.0 mg/kg/injection, schedule: Q04DX003 (ip), vehicle: saline) is 103 % of control; the T/C (dose: 200.0 mg/kg/injection, schedule: Q04DX003 (ip), vehicle: saline) is 103 % of control; the T/C (dose: 400.0 mg/kg/injection, schedule: Q04DX003 (ip), vehicle: saline) was 100 % of control.
For the compound `c1ccc2c(-c3cc(-c4cc(-c5cccc6ccccc56)on4)no3)cccc2c1`, the T/C by setting is: under setting [1], 106 % of control; under setting [2], 97 % of control; under setting [9], 100 % of control.
Regarding `Nc1c(Cl)cc(Cl)c(-c2c(Cl)cc(Cl)c([N+](=O)[O-])c2Cl)c1Cl`, the T/C under setting [10] is 103 % of control, the T/C under setting [11] is 93 % of control and the T/C under setting [12] is 100 % of control.
Turning to `CCC(Br)C(=O)SC(C)(C)C` (stereo not given), the T/C by setting is: (dose: 100.0 mg/kg/injection, schedule: Q04DX003 (ip), vehicle: saline with Tween-80) 111 % of control; (dose: 200.0 mg/kg/injection, schedule: Q04DX003 (ip), vehicle: saline with Tween-80) 106 % of control.
For `Cc1c[nH]c(=O)cn1`, the T/C is, setting by setting: (dose: 100.0 mg/kg/injection, schedule: Q04DX003 (ip), vehicle: Klucel (hydroxypropylcellulose) (HPC)) 95 % of control; (dose: 200.0 mg/kg/injection, schedule: Q04DX003 (ip), vehicle: Klucel (hydroxypropylcellulose) (HPC)) 90 % of control; (dose: 400.0 mg/kg/injection, schedule: Q04DX003 (ip), vehicle: Klucel (hydroxypropylcellulose) (HPC)) 95 % of control.
Take `N#C/C=C1\NC(=O)CS1`: the T/C was 95 % of control under setting [3], 100 % of control under setting [4] and 95 % of control under setting [5].
Regarding `CCCCCCCC(=O)Nc1ncc([N+](=O)[O-])s1`, the T/C is, setting by setting: under setting [10], 106 % of control; under setting [11], 106 % of control; under setting [12], 113 % of control.
On to `CCN(CC)c1cc(-c2ccccc2)oc(=O)c1Cl`, for which the T/C is 100 % of control under setting [3], 93 % of control under setting [4] and 97 % of control under setting [5].
As for `COc1ccc(S(=O)(=O)N/N=C/c2cc(=O)[nH]c(=O)[nH]2)cc1`, the T/C runs as follows: (dose: 25.0 mg/kg/injection, schedule: Q01DX005 (ip), vehicle: saline with Tween-80) 100 % of control; under setting [6], 101 % of control; under setting [7], 105 % of control; under setting [8], 118 % of control.
As for `[Ni]=[Se]`, the T/C is, setting by setting: (dose: 60.0 mg/kg/injection, schedule: Q01DX005 (ip), vehicle: saline) 97 % of control; (dose: 120.0 mg/kg/injection, schedule: Q01DX005 (ip), vehicle: saline) 96 % of control; (dose: 240.0 mg/kg/injection, schedule: Q01DX005 (ip), vehicle: saline) 97 % of control.
In the case of `C=C(C)CN(CCC#N)CC(=C)C`, the T/C is, setting by setting: under setting [6], 102 % of control; under setting [7], 105 % of control; under setting [8], 101 % of control.
With `c1ccc(CCc2cccc3ccccc23)nc1`, the T/C under setting [6] was 98 % of control, the T/C under setting [7] is 96 % of control and the T/C under setting [8] is 100 % of control.
In the case of `COc1ccccc1C1=Nc2ccccc2N=C(c2ccccc2O)C1`, the T/C under setting [1] is 107 % of control, the T/C under setting [2] is 100 % of control and the T/C under setting [9] was 90 % of control.

The record behind these values is PubChem BioAssay AID330 (DTP/NCI, 2004).
